Data from patent US20120283216A1, “FUNGICIDAL 2-(BICYCLIC ARYLOXY)CARBOXAMIDES” (priority 2009, published 2012).

Experiments:
Type in all cases: in vivo
[1] = tested on: Blumeria graminis f. sp. tritici; assay: Test A: wheat powdery mildew, preventive spray on wheat seedlings, visual disease rating; conditions: preventive spray at 40 ppm, rated 8 days after inoculation; for pest or weed control at 40 ppm: Blumeria graminis, 192 h, read-out: Test A disease control rating (100 = 100% disease control, 0 = no disease control relative to the controls)
Source text: General protocol for preparing test suspensions for Tests A-C: the test compounds were first dissolved in acetone in an amount equal to 11% of the final volume and then suspended at the desired concentration (in ppm) in acetone and purified water (50/50 mix by volume) containing 250 ppm of the surfactant Trem® 014 (polyhydric alcohol esters). The resulting test suspensions were then used in Tests A-C. Spraying a 40 ppm test suspension to the point of run-off on the test plants was the equivalent of a rate of 800 g/ha. The test suspension was sprayed to the point of run-off on wheat seedlings. The following day the seedlings were inoculated with a spore dust of Blumeria graminis f. sp. tritici, (the causal agent of wheat powdery mildew) and incubated in a growth chamber at 20° C. for 8 days, after which time disease ratings were visually made. Results for Tests A-C are given in Table A. In the Table, a rating of 100 indicates 100% disease control and a rating of 0 indicates no disease control (relative to the controls). A dash (-) indicates no test results. All results are from applications of 40 ppm.

Septoria tritici = assay: Test B: wheat leaf blotch, preventive spray on wheat seedlings, visual disease rating; conditions: preventive spray at 40 ppm, rated after 48 h + 19 days; for pest or weed control at 40 ppm: Zymoseptoria tritici, 504 h, read-out: Test B disease control rating (100 = 100% disease control, 0 = no disease control relative to the controls)
Source text: General protocol for preparing test suspensions for Tests A-C: the test compounds were first dissolved in acetone in an amount equal to 11% of the final volume and then suspended at the desired concentration (in ppm) in acetone and purified water (50/50 mix by volume) containing 250 ppm of the surfactant Trem® 014 (polyhydric alcohol esters). The resulting test suspensions were then used in Tests A-C. Spraying a 40 ppm test suspension to the point of run-off on the test plants was the equivalent of a rate of 800 g/ha. The test suspension was sprayed to the point of run-off on wheat seedlings. The following day the seedlings were inoculated with a spore suspension of Septoria tritici (the causal agent of wheat leaf blotch) and incubated in a saturated atmosphere at 20° C. for 48 h, and then moved to a growth chamber at 20° C. for 19 days, after which time disease ratings were visually made. Results for Tests A-C are given in Table A. In the Table, a rating of 100 indicates 100% disease control and a rating of 0 indicates no disease control (relative to the controls). A dash (-) indicates no test results. All results are from applications of 40 ppm.

Botrytis cinerea = assay: Test C: tomato botrytis, preventive spray on tomato seedlings, visual disease rating; conditions: preventive spray at 40 ppm, rated after 48 h + 3 days; for pest or weed control at 40 ppm: Botrytis cinerea, 120 h, read-out: Test C disease control rating (100 = 100% disease control, 0 = no disease control relative to the controls)
Source text: General protocol for preparing test suspensions for Tests A-C: the test compounds were first dissolved in acetone in an amount equal to 11% of the final volume and then suspended at the desired concentration (in ppm) in acetone and purified water (50/50 mix by volume) containing 250 ppm of the surfactant Trem® 014 (polyhydric alcohol esters). The resulting test suspensions were then used in Tests A-C. Spraying a 40 ppm test suspension to the point of run-off on the test plants was the equivalent of a rate of 800 g/ha.
The test suspension was sprayed to the point of run-off on tomato seedlings. The following day the seedlings were inoculated with a spore suspension of Botrytis cinerea (the causal agent of tomato botrytis) and incubated in saturated atmosphere at 20° C. for 48 h, and then moved to a growth chamber at 27° C. for 3 additional days, after which time disease ratings were visually made.
Results for Tests A-C are given in Table A. In the Table, a rating of 100 indicates 100% disease control and a rating of 0 indicates no disease control (relative to the controls). A dash (-) indicates no test results. All results are from applications of 40 ppm.

SMILES | Test A disease control rating (100 = 100% disease control, 0 = no disease control relative to the controls) [1] | Test B disease control rating (100 = 100% disease control, 0 = no disease control relative to the controls) (Septoria tritici) | Test C disease control rating (100 = 100% disease control, 0 = no disease control relative to the controls) (Botrytis cinerea) | pest or weed control at 40 ppm [1] | pest or weed control at 40 ppm (Septoria tritici) | pest or weed control at 40 ppm (Botrytis cinerea)
C#Cc1ccc2ncc(OC(CC)C(=O)NC(C)(C)C#N)cc2c1 (stereo not shown) [Compound 152] | 88% | 100% | 94% |  |  | 
CCCc1ccc2ccc(OC(CC)C(=O)NC(C)(C)COC)cc2c1 (stereo not shown) [Compound 143] | 98% | 100% | 99% |  |  | 
C#Cc1ccc2ncc(OC(OC)C(=O)NC(C)(C)COC)cc2c1 (stereo not shown) [Compound 162] | 100% | 100% | 100% |  |  | 
C#CC(C)(C)NC(=O)C(CC)Oc1ccc2ccc(OC)cc2c1 (stereo not shown) [Compound 4] | 97% | 100% | 100% |  |  | 
C#CC(CC)(CC)NC(=O)C(CC)Oc1ccc2ccc(OC)cc2c1 (stereo not shown) [Compound 86] | 0% | 19% | 19% |  |  | 
COC(Oc1ccc2ccc(Br)cc2c1)C(=O)NC(C)(C)C#N (stereo not shown) [Compound 93] | 95% | 100% | 100% |  |  | 
CCOc1ccc2ccc(OC(OCC)C(=O)NC(C)(C)COC)cc2c1 (stereo not shown) [Compound 120] | 90% | 99% | 98% |  |  | 
C#Cc1ccc2ccc(OC(CC)C(=O)NC(C)(C)C#N)cc2c1 (stereo not shown) [Compound 110, N-(1-cyano-1-methylethyl)-2-[(7-ethynyl-2-naphthalenyl)oxy]butanamide] |  |  |  | 100% | 100% | 100%
CCC(Oc1ccc2ccc(Br)cc2c1)C(=O)NC(C)(C)C1CO1 (stereo not shown) [Compound 19] | 0% | 60% | 98% |  |  | 
C#Cc1ccc2ccc(OC(CC)C(=O)NC(C)(C)C#CC)cc2c1 (stereo not shown) [Compound 111, N-(1,1-dimethyl-2-butyn-1-yl)-2-[(7-ethynyl-2-naphthalenyl)oxy]butanamide] |  |  |  | 100% | 100% | 100%
COCC(C)(C)NC(=O)C(C)Oc1ccc2ccc(C#N)cc2c1 (stereo not shown) [Compound 25] | 47% | 96% | 99% |  |  | 
CCC(Oc1cnc2c(Cl)cc(Cl)cc2c1)C(=O)NC(C)(C)C (stereo not shown) [Compound 57] |  |  |  | 0% | 99% | 99%
C#CC(C)(C)NC(=O)C(OC)Oc1ccc2ccc(OCCC)cc2c1 (stereo not shown) [Compound 126] | 72% | 99% | 99% |  |  | 
COCC(C)(C)NC(=O)C(OC)Oc1ccc2ccc(OC)cc2c1 (stereo not shown) [Compound 83] | 96% | 99% | 100% |  |  | 
C#CC(C)(C)NC(=O)C(COC)Oc1cnc2ccc(Br)cc2c1 (stereo not shown) [Compound 36] | 0% | 89% | 36% |  |  | 
CCOC(Oc1ccc2ccc(Br)cc2c1)C(=O)NC(C)(C)COC (stereo not shown) [Compound 118] | 0% | 97% | 97% |  |  | 
CCC(Oc1ccc2ccc(Br)cc2c1)C(=O)NC(C)(C)CO (stereo not shown) [Compound 16, 2-[(7-bromo-2-naphthalenyl)oxy]-N-(2-hydroxy-1,1-dimethylethyl)-butanamide] |  |  |  | 97% | 99% | 100%
C#Cc1ccc2ncc(OC(CC)C(=O)NCC(C)(C)C)cc2c1 (stereo not shown) [Compound 153] | 0% | 92% | 93% |  |  | 
CCC(Oc1ccc2ccc(C(F)F)cc2c1)C(=O)NC(C)(C)C#N (stereo not shown) [Compound 77] | 0% | 99% | 67% |  |  | 
C#CC(C)(C)NC(=O)C(CC)Oc1ccc2ccc(Br)cc2c1 (stereo not shown) [Compound 31] | 100% |  | 100% |  |  | 
C#Cc1ccc2ncc(OC(CC)C(=O)NC(C)(C)COC)cc2c1 (stereo not shown) [Compound 148] | 100% |  | 100% |  |  | 
COCOCC(C)(C)NC(=O)C(OC)Oc1ccc2ccc(Br)cc2c1 (stereo not shown) [Compound 99] | 96% |  | 100% |  |  | 
COC(Oc1ccc2ccc(Br)cc2c1)C(=O)NC(C)(C)CO (stereo not shown) [Compound 98] | 64% |  | 99% |  |  | 
COC(Oc1ccc2ccc(Br)cc2c1)C(=O)NC(C)(C)C (stereo not shown) [Compound 100] |  |  |  | 100% |  | 99%
